Data taken from US20240383900A1, “SUBSTITUTED PYRAZOLO [1,5-A]PYRIMIDINE-7-AMINE COMPOUNDS AS CDK INHIBITORS AND THEIR THERAPEUTIC USE” (Carrick Therapeutics Limited, priority 2021, published 2024).
pIC50: −log10 of the molar value. Like-named read-outs stand apart in the source and are kept apart here.

Legend:
Human CDK12 wt/CycK = Human CDK12 wt/CycK (Homo sapiens (Human), UniProt Q9NYV4); test: Radiometric protein kinase assay (33PanQinase Activity Assay), CDK12; type: biochemical; conditions: for CDK7/CDK12: ratio of CDK7 IC50 to CDK12 IC50, greater than 1 indicates selectivity for CDK12
Procedure: (§1) A radiometric protein kinase assay (^33PanQinase® Activity Assay) was used for measuring the kinase activity of the two protein kinases (CDK12/CDK7). All kinase assays were performed in 96-well FlashPlates™ from PerkinElmer (Boston, MA, USA) in a 50 μL reaction volume.
(§2) The reaction cocktail was pipetted in four steps in the following order: • 20 μL of assay buffer (standard buffer) • 5 μL of ATP solution (in H2O) • 5 μL of test compound (in 10% DMSO) • 10 μL of substrate/10 μL of enzyme solution (premixed)
(§3) The reaction mixture was incubated at 30° C. for 60 min and then stopped by the addition of 2% (v/v) H3PO4. Plates were aspirated and washed two times with 200 μL 0.9% (w/v) NaCl. Incorporation of ^33Pi was determined with a microplate scintillation count (Microbeta, Wallac).
The fitting method used was a least-squares fit.

A673 cells = test: Cytotoxicity in A673 cells (Cell Titer Glo viability); type: cell-based; conditions: for Ratio of Biochemical Potency:Cellular Potency: CDK12 IC50 / A673 IC50; for IC50 / pIC50: Homo sapiens; for IC50: A673, read-out: Cellular Potency IC50 (nM) (in A673 cells); for pIC50: A673 cells, 72 hours, read-out: A673 IC50
Procedure: Cells were plated in 96-well plates at a density of […] viable cells per well in 200 μL fully supplemented growth medium (DMEM+10% heat inactivated foetal bovine serum) and incubated for 24 hours in standard tissue culture conditions. Compounds, including MLN4924, were solubilised in DMSO and then diluted in fully supplemented growth medium at 2× their final assay concentration such that the final DMSO concentration was 0.1%. Growth medium in the assay plates was replaced with 50 μL of growth medium containing 2×MLN4924 (final assay concentration: 30 nM, where tested) or vehicle only and 50 μL of growth medium containing a 2× compound concentration series or vehicle only such that each compound was at 1× final assay concentration in 100 μL.
Cells were then incubated for 72 hours in standard tissue culture conditions before viability was assessed using 50 μL Cell Titer Glo reagent (Promega) per well and luminescence measured on an EnVision plate reader. Data were normalised to vehicle control (100%) and cells treated with 0.1% Triton x-100 for 1 hour before viability measurement (0%; full cell kill). […] Viability curves generated in the presence of MLN4924 were normalised and fixed to controls treated with MLN4924.

Human CDK7/CycH/MAT1 = Human CDK7/CycH/MAT1 (Homo sapiens (Human), UniProt P50613); test: Radiometric protein kinase assay (33PanQinase Activity Assay), CDK7; type: biochemical; conditions: ATP 3 μM
Procedure: Additionally for the CDK7 assay: • Human CDK7/CycH/MAT1 (ProQinase, 0366-0360-4—Lot 2). • RBER-CHKtide (ProQinase, 0581-0000-5—Lot 106).
as §1, §2
For the CDK7 assay, a reaction mixture (50 μL) containing the following components was prepared: • 70 mM HEPES-NaOH (pH 7.5); • sodium orthovanadate (3 μM); • PEG-20000 (50 μg/mL); • DTT (1.2 mM); • MgCl2 (3 mM); • MnCl2 (3 mM); • purified human CDK7/CycH/MAT1 (3.3 nM—Lot 02); • RBER-CHKtide substrate (40 μg/mL—Lot 106); • ATP (3 μM); • [γ-33P]-ATP (approx. 8×10^5 cpm per well); and • test compound at the appropriate concentration such that the final concentration of DMSO was […].
as §3
The residual activities for each concentration and the compound IC50 values were calculated using Quattro Workflow V3.1.1 (Quattro Research GmbH, Munich, Germany). The fitting model for the IC50 determinations was “Sigmoidal response (variable slope)” with parameters “top” fixed at 100% and “bottom” at 0%. The fitting method used was a least-squares fit.

[1] = ATP 0.3 μM, read-out: CDK12 IC50
[2] = read-out: CKD12 Biochemical Potency IC50

Chain of Human CDK12 wt/CycK (Q9NYV4 whole entry): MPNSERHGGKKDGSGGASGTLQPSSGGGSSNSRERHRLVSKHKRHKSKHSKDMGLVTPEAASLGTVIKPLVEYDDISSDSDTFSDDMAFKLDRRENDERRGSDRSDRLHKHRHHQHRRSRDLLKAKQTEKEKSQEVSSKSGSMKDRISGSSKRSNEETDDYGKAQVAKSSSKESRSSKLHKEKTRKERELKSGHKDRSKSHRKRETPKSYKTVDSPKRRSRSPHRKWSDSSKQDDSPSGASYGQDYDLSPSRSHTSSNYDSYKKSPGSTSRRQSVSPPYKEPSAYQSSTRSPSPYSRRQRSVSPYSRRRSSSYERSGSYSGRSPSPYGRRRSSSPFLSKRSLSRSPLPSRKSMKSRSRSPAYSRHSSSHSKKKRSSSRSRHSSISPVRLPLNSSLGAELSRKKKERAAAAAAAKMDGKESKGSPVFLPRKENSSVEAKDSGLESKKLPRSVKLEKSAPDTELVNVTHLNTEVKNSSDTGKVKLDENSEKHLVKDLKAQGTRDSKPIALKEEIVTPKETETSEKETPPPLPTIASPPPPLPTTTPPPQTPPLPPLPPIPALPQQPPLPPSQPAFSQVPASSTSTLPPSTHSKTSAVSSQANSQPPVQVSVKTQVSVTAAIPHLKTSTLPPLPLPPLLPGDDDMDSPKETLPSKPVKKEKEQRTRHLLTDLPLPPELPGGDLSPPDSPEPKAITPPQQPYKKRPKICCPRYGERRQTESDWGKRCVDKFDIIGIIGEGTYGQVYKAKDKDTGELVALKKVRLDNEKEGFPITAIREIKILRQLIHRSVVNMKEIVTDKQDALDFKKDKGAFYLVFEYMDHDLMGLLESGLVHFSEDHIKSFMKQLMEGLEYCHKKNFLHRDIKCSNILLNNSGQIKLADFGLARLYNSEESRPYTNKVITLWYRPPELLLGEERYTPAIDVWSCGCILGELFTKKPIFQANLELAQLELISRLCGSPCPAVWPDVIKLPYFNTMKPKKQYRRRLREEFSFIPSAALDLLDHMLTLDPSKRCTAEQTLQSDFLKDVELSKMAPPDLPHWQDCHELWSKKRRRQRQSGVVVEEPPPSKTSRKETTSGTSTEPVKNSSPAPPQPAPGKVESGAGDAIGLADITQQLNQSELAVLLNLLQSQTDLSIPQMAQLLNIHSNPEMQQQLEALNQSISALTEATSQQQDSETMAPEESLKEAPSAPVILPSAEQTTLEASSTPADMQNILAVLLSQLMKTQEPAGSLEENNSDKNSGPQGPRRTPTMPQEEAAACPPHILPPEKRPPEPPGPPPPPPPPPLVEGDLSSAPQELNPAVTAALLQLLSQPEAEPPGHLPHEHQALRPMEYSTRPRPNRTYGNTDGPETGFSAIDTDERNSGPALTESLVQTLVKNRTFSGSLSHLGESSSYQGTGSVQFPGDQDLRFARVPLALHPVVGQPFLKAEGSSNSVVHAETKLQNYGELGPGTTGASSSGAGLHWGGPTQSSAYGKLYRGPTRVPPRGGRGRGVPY
Chain of Human CDK12 wt/CycK (O75909 whole entry partner): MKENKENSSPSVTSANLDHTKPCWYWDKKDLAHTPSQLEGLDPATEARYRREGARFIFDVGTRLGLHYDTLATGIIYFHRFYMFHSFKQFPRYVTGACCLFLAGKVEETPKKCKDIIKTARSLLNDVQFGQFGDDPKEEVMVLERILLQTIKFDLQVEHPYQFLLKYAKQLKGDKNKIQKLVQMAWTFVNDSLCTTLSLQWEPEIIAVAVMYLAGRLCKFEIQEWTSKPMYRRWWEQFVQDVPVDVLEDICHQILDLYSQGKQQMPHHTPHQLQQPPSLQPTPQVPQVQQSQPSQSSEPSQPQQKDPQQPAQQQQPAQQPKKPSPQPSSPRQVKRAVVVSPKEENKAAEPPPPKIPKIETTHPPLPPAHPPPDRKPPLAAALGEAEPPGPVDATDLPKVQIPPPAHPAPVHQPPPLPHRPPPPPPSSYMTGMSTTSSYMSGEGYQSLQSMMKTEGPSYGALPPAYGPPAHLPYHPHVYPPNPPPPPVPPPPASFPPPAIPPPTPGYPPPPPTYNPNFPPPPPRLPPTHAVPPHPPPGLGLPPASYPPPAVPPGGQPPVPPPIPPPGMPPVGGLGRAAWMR
Chain of Human CDK7/CycH/MAT1 (P50613 whole entry): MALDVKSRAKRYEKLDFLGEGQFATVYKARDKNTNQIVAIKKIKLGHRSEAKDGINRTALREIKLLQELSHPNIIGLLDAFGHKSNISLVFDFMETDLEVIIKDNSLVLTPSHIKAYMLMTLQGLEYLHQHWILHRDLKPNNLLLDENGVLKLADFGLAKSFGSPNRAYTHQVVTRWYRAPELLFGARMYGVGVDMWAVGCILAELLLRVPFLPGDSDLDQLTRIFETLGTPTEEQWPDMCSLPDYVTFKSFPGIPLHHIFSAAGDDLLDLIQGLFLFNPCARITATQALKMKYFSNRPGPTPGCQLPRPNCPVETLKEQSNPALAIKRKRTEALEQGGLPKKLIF
Chain of Human CDK7/CycH/MAT1 (P51946 whole entry partner): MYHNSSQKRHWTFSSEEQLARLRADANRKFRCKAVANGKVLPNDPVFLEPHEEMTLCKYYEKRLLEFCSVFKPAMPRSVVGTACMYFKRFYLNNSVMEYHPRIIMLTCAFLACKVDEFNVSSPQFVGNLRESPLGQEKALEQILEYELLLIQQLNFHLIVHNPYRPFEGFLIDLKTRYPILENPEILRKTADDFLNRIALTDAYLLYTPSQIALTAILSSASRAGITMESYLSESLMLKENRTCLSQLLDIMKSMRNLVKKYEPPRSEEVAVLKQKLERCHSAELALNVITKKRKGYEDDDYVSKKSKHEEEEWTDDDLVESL
Chain of Human CDK7/CycH/MAT1 (P51948 whole entry partner): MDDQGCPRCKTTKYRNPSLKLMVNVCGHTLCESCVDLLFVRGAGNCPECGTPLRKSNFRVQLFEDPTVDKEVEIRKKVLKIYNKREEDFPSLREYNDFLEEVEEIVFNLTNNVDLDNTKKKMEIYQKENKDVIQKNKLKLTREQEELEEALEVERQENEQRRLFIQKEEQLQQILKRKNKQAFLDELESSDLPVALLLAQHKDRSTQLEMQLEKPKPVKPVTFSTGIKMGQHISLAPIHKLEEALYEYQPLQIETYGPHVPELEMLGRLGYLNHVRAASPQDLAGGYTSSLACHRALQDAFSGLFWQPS

pIC50 (Human CDK12 wt/CycK; [1])	CDK7/CDK12 (Human CDK12 wt/CycK)	pIC50 (Human CDK12 wt/CycK; [2])	pIC50 (Human CDK7/CycH/MAT1)	Structure (SMILES)	Ratio of Biochemical Potency:Cellular Potency (A673 cells)	IC50 (A673 cells) [nM]	pIC50 (A673 cells)
6.79	1.8	6.79	6.52	COc1cccnc1-c1ccc(CNc2cc(NC[C@H]3CCNC[C@@H]3O)nc3c(C4CC4)cnn23)cc1 [PPA-027]	74.09	2.2	8.66
6.60	23.9	6.60	5.22	c1ccc(-c2ccc(CNc3cc(N[C@@H]4CCNC4)nc4c(C5CC5)cnn34)cc2)nc1 [PPA-043]	18.54	13.7	7.86
7.14	1.8	7.14	6.89	O[C@H]1CNCC[C@@H]1CNc1cc(NCc2cc(F)c(-c3ccccn3)cn2)n2ncc(C3CC3)c2n1 [PPA-022]	48.00	1.5	8.82
5.91	10.7	5.91	4.88	NC1CN(c2cc(NCc3ccc(-c4ccccn4)cc3)n3ncc(C4CC4)c3n2)C1 [PPA-057]	24.65	50.3	7.30
7.33	1.6	7.33	7.12	CC(C)c1cnn2c(NCc3ccc(-c4cccnc4)cc3)cc(NC[C@H]3CCNC[C@@H]3O)nc12 [PPA-003, (3R,4R)-4-(((3-isopropyl-7-((4-(pyridin-3-yl)benzyl)amino)pyrazolo[1,5-a]pyrimidin-5-yl)amino)methyl)piperidin-3-ol]	2.90	16.2	7.79
6.92	4.4	6.92	6.28	O[C@H]1CNCC[C@@H]1CNc1cc(NCc2ccc(-c3ccccc3)cn2)n2ncc(C3CC3)c2n1 [PPA-034]	10.71	11.3	7.95
5.83	1.5	5.83	5.65	O[C@H]1CNCC[C@@H]1CNc1cc(NCc2c(F)cc(-c3ccccc3)cc2F)n2ncc(C3CC3)c2n1 [PPA-076]	<14.9	> 100	< 7.00
7.15	3.2	7.15	6.65	O[C@H]1CNCC[C@@H]1CNc1cc(NCc2ccc(-c3ccc(F)cn3)cc2)n2ncc(C3CC3)c2n1 [PPA-019]	1.34	52.4	7.28
7.64	15.2	7.64	6.46	O[C@H]1CNCC[C@@H]1CNc1cc(NCc2ccc(-c3ccccn3)cc2F)n2ncc(Cl)c2n1 [PPA-074]	32.86	0.7	9.15
6.94	26.3	6.94	5.52	c1ccc(-c2ccc(CNc3cc(N4CCNCC4)nc4c(C5CC5)cnn34)cc2)nc1 [PPA-038]	18.55	6.2	8.21
7.29	2.2	7.29	6.95	CC(C)c1cnn2c(NCc3ccc(-c4ncccn4)cc3)cc(NC[C@H]3CCNC[C@@H]3O)nc12 [PPA-007]	30.00	1.7	8.77
7.01	13.0	7.01	5.90	c1ccc(-c2ccc(CNc3cc(O[C@@H]4CCCNC4)nc4c(C5CC5)cnn34)cc2)nc1 [PPA-061]	18.30	5.3	8.28
7.13	1.0	7.13	7.14	CC(C)c1cnn2c(NCc3ccc(-c4ncccc4F)cc3)cc(NC[C@H]3CCNC[C@@H]3O)nc12 [PPA-014]	11.56	6.4	8.19

Further lines, the compound ahead of its results:

Structure (SMILES)	pIC50 (Human CDK12 wt/CycK; [1])	CDK7/CDK12 (Human CDK12 wt/CycK)	pIC50 (Human CDK12 wt/CycK; [2])	pIC50 (Human CDK7/CycH/MAT1)	Ratio of Biochemical Potency:Cellular Potency (A673 cells)	IC50 (A673 cells) [nM]	pIC50 (A673 cells)
O[C@H]1CNCC[C@@H]1CNc1cc(NCc2ccc(-c3ccccc3)cc2F)n2ncc(C3CC3)c2n1 [PPA-066]	6.76	5.2	6.76	6.04	7.13	24.4	7.61
O[C@H]1CNCC[C@@H]1CNc1cc(NCc2ccc(-c3ccccn3)cn2)n2ncc(C3CC3)c2n1 [PPA-021]	7.16	5.7	7.16	6.41	9.20	7.5	8.12
COc1cc(CNc2cc(NC[C@H]3CCNC[C@@H]3O)nc3c(C4CC4)cnn23)ccc1-c1ccccn1 [PPA-015]	6.63	1.9	6.63	6.35	1.31	179	6.75
N#Cc1cnn2c(NCc3ccc(-c4ccccc4)cc3)cc(NC[C@H]3CCNC[C@@H]3O)nc12 [PPA-081]	7.24	6.0	7.24	6.46	7.50	7.6	8.12
O[C@H]1CNCC[C@@H]1CNc1cc(NCc2ccc(-c3ncccn3)cc2F)n2ncc(C3CC3)c2n1 [PPA-067]	7.19	8.6	7.19	6.25	25.00	2.6	8.59
FC1(F)CNCCC1CNc1cc(NCc2ccc(-c3ccccn3)cc2)n2ncc(C3CC3)c2n1 (stereo not shown) [PPA-041]	6.72	8.5	6.72	5.80	10.92	17.3	7.76
c1ccc(-c2ccc(CNc3cc(-c4ccn[nH]4)nc4c(C5CC5)cnn34)cc2)nc1 [PPA-079]	5.92		5.92	< 4.52	<11.9	> 100	< 7.00
O=C1C[C@H](Nc2cc(NCc3ccc(-c4ccccn4)cc3)n3ncc(C4CC4)c3n2)CN1 [PPA-075]	6.84	32.6	6.84	5.33	25.44	5.7	8.24
c1ccc(-c2ccc(CNc3cc(N4CC5(CCNCC5)C4)nc4c(C5CC5)cnn34)cc2)nc1 [PPA-042]	5.69	5.1	5.69	4.99	8.69	232	6.63
CC(C)c1cnn2c(NCc3ccc(-c4ccccn4)cc3)cc(NC[C@H]3CCNC[C@@H]3O)nc12 [PPA-001, (3R,4R)-4-(((3-isopropyl-7-((4-(pyridin-2-yl)benzyl)amino)pyrazolo[1,5-a]pyrimidin-5-yl)amino)methyl)piperidin-3-ol]	7.21	2.7	7.21	6.79	21.79	2.8	8.55
